One assay relates to immature rats (4-week old male Wistar rats). The assay can be described thus: Evaluation of blood calcium concentration-decreasing activity in immature rats. The class given is in vivo. The following applies: Rattus norvegicus; 6 hours after oral administration of 10 mg/kg, fasted 4-week old male Wistar rats, vs normal control group; read-out: serum calcium concentration-decreasing rate. How it is done:
The blood calcium concentration in a living body is strictly controlled and constantly maintained by intestinal absorption and urinary excretion and release (bone resorption) and adhesion (bone formation) in bone tissues. […] The bone resorption-suppressing activity of compounds according to the present invention was evaluated by observing decreases in blood calcium concentration in immature rats administered with the compounds as an index of the activity.
The test was conducted using 4-week old male Wistar rats fasted for 12 to 24 hours. Each compound to be tested was suspended in 0.5% methyl cellulose (MC). The suspension was orally administered to the rats at a dose of 5 mL/kg. Rats of a normal control group were similarly administered with 0.5% MC alone. Then, blood was drawn from rat jugular vein under ether anesthesia 6 hours after the administration of each test compound or 0.5% MC. The blood was immediately centrifuged (10000 rpm/revolutions per minute, 5 minutes) at room temperature to separate serum. The calcium concentration of each serum was measured by an autoanalyzer (JEOL, JCA-BM2250). Five rats were used for each test group.
The evaluation was conducted by a comparative test with the normal control group based on the serum calcium concentration-decreasing rate (%) calculated according to the following equation: Serum calcium concentration-decreasing rate(%)=(([serum calcium concentration in normal control group]−[serum calcium concentration in test compound administration group]/[serum calcium concentration in normal control group])×100.
`O=C(NC(Cc1ccc(OC(F)F)cc1)C(=O)NCCO)c1ccc(OCCC2CC2)cc1` (stereo not drawn) [Example 3, 4-(2-Cyclopropylethoxy)-N-{1-[4-(difluoromethoxy)benzyl]-2-[(2-hydroxyethyl)amino]-2-oxoethyl}benzamide]: the inhibition in vivo at 10 mg/kg was at least 10%.

Take `O=C(NC(Cc1ccc(OC(F)(F)F)cc1)C(=O)NCCO)c1ccc(OCCC2CC2)cc1` (stereo not drawn) [Example 4, 4-(2-Cyclopropylethoxy)-N-{2-[(2-hydroxyethyl)amino]-2-oxo-1-[4-(trifluoromethoxy)benzyl]ethyl}benzamide]: the inhibition in vivo at 10 mg/kg was at least 10%.

For `O=C(NC(Cc1ccc(C(F)(F)F)cc1)C(=O)NCCO)c1ccc(OCCC2CC2)cc1` (stereo not drawn) [Example 7, 4-(2-Cyclopropylethoxy)-N-{2-[(2-hydroxyethyl)amino]-2-oxo-1-[4-(trifluoromethyl)benzyl]ethyl}benzamide], the inhibition in vivo at 10 mg/kg is at least 10%.

Consider `O=C(NC(Cc1ccc(OC(F)F)cc1)C(=O)NCCO)c1ccc(OCC2CC2)cc1` (stereo not drawn) [Example 18, 4-(Cyclopropylmethoxy)-N-{1-[4-(difluoromethoxy)benzyl]-2-[(2-hydroxyethyl)amino]-2-oxoethyl}benzamide], for which the inhibition in vivo at 10 mg/kg is at least 10%.

With `O=C(NC(Cc1ccc(OC(F)(F)F)cc1)C(=O)NCCO)c1ccc(OCC2CC2)cc1` (stereo not drawn) [Example 19, 4-(Cyclopropylmethoxy)-N-{2-[(2-hydroxyethyl)amino]-2-oxo-1-[4-(trifluoromethoxy)benzyl]ethyl}benzamide], the inhibition in vivo at 10 mg/kg was at least 10%.

In the case of `O=C(NC(Cc1ccc(OC2CC2)cc1)C(=O)NCCO)c1ccc(OCC2CC2)cc1` (stereo not drawn) [Example 20, 4-(Cyclopropylmethoxy)-N-{1-[4-(cyclopropyloxy)benzyl]-2-[(2-hydroxyethyl)amino]-2-oxoethyl}benzamide], the inhibition in vivo at 10 mg/kg is at least 10%.

Consider `O=C(NC(Cc1ccc(C(F)(F)F)cc1)C(=O)NCCO)c1ccc(OCC2CC2)cc1` (stereo not drawn) [Example 22, 4-(Cyclopropylmethoxy)-N-{2-[(2-hydroxyethyl)amino]-2-oxo-1-[4-(trifluoromethyl)benzyl]ethyl}benzamide], for which the inhibition in vivo at 10 mg/kg was at least 10%.

On to `O=C(NC(Cc1ccc(C2CC2)cc1)C(=O)NCCO)c1ccc(OCC2CC2)cc1` (stereo not drawn) [Example 23, N-{1-(4-Cyclopropylbenzyl)-2-[(2-hydroxyethyl)amino]-2-oxoethyl}-4-(cyclopropylmethoxy)benzamide], for which the inhibition in vivo at 10 mg/kg was at least 10%.

As for `O=C(NC(Cc1ccc(OC(F)(F)F)cc1)C(=O)NCCO)c1ccc(OCCCC2CC2)cc1` (stereo not drawn) [Example 25, 4-(3-Cyclopropylpropoxy)-N-{2-[(2-hydroxyethyl)amino]-2-oxo-1-[4-(trifluoromethoxy)benzyl]ethyl}benzamide], the inhibition in vivo at 10 mg/kg is at least 10%.

`O=C(NC(Cc1ccc(OC(F)(F)F)cc1)C(=O)NCCO)c1ccc(OCC(F)F)cc1` (stereo not drawn) [Example 31, 4-(2,2-Difluoroethoxy)-N-{2-[(2-hydroxyethyl)amino]-2-oxo-1-[4-(trifluoromethoxy)benzyl]ethyl}benzamide]: the inhibition in vivo at 10 mg/kg was at least 10%.

For the compound `O=C(NC(Cc1ccc(OC(F)(F)F)cc1)C(=O)NCCO)c1ccc(OCCC(F)(F)F)cc1` (stereo not drawn) [Example 34, N-{2-[(2-Hydroxyethyl)amino]-2-oxo-1-[4-(trifluoromethoxy)benzyl]ethyl}-4-(3,3,3-trifluoropropoxy)benzamide], the inhibition in vivo at 10 mg/kg is at least 10%.

As for `O=C(NC(Cc1ccc(OC(F)(F)F)cc1)C(=O)NCCO)c1ccc(OCC2CC2(F)F)cc1` (stereo not drawn) [Example 40, 4-[(2,2-Difluorocyclopropyl)methoxy]-N-{2-[(2-hydroxyethyl)amino]-2-oxo-1-[4-(trifluoromethoxy)benzyl]ethyl}benzamide], the inhibition in vivo at 10 mg/kg is at least 10%.

In the case of `O=C(NC(Cc1ccc(OC(F)(F)F)cc1)C(=O)NCCO)c1ccc(Oc2ccc(C(F)(F)F)cc2)cc1` (stereo not drawn) [Example 42, N-{2-[(2-Hydroxyethyl)amino]-2-oxo-1-[4-(trifluoromethoxy)benzyl]ethyl}-4-[4-(trifluoromethyl)phenoxy]benzamide], the inhibition in vivo at 10 mg/kg was at least 10%.

The next assay has as its system adjuvant arthritis model rats (8-week old female Lewis rats). Kind of assay: Bone density decrease-suppressing activity in adjuvant arthritis model rats. It is filed as in vivo, rat. The following applies: dose 3 mg/kg, oral once a day for 7 days from day 14 after adjuvant injection; femur bone density on the 21st day. How it is done: In rheumatoid arthritis, not only swelling and pain caused by arthritis but also systemic bone mass decrease and articular destruction caused by a significant increase in bone resorption are observed.
The test was conducted using 8-week old female Lewis rats. Mycobacterium butyricum cells killed by heat were ground in an agate mortar, suspended in liquid paraffin sterilized by dry heat to a concentration of 2 mg/mL, and treated with ultrasonic to prepare an adjuvant. Under ether anesthesia, rats in a control group other than a normal control group and rats in test compound administration group were intradermally injected with 0.05 mL of the adjuvant each time (0.1 mL/rat in total) at two portions of the base of the tail. Starting from 14 days after the injection of the adjuvant, each rat was orally administered with 5 mL/kg of a test compound suspended in 0.5% MC once a day for 7 days. The rats of the control group were similarly administered with 0.5% MC alone. On the 21st day after the adjuvant injection, the femur was biopsied. The femur, after removing soft tissues, was sufficiently fixed, dehydrated, and dried with ethanol. The bone density of the femur was measured with a bone density analyzer (Aloka, DOS-600 EX-IIIR). Five rats were used for each group.
The evaluation was conducted by comparative tests with the normal control group and the control group based on the bone density decrease-suppressing rate (%) calculated according to the following equation: Bone density decrease-suppressing rate(%)=((1−([femur bone density in normal control group]−[femur bone density in test compound administration group]))/([femur bone density in normal control group]−[femur bone density in control group]))×100
Consider `O=C(N[C@@H](Cc1ccc(OC(F)(F)F)cc1)C(=O)NCCO)c1ccc(OCC2CC2)cc1` [Example 51, 4-(Cyclopropylmethoxy)-N-{(1S)-2-[(2-hydroxyethyl)amino]-2-oxo-1-[4-(trifluoromethoxy)benzyl]ethyl}benzamide], for which the “Bone density decrease-suppressing rate (%)” value was determined as 85%.

With `O=C(N[C@@H](Cc1ccc(OC(F)(F)F)cc1)C(=O)NCCO)c1ccc(OCCC(F)(F)F)cc1` [Example 57, N-{(1S)-2-[(2-Hydroxyethyl)amino]-2-oxo-1-[4-(trifluoromethoxy)benzyl]ethyl}-4-(3,3,3-trifluoropropoxy)benzamide], the “Bone density decrease-suppressing rate (%)” value was determined as 86%.

Consider `O=C(N[C@@H](Cc1ccc(OC(F)F)cc1)C(=O)NCCO)c1ccc(OCCC(F)(F)F)cc1` [Example 59, N-{(1S)-1-[4-(Difluoromethoxy)benzyl]-2-[(2-hydroxyethyl)amino]-2-oxoethyl}-4-(3,3,3-trifluoropropoxy)benzamide], for which the “Bone density decrease-suppressing rate (%)” value came out at 92%.

Take `O=C(N[C@@H](Cc1ccc(C(F)(F)F)cc1)C(=O)NCCO)c1ccc(OCCC(F)(F)F)cc1` [Example 61, N-{(1S)-2-[(2-Hydroxyethyl)amino]-2-oxo-1-[4-(trifluoromethyl)benzyl]ethyl}-4-(3,3,3-trifluoropropoxy)benzamide]: the “Bone density decrease-suppressing rate (%)” value worked out at 75%.

As for `O=C(N[C@@H](Cc1ccc(OC(F)(F)F)cc1)C(=O)NCCO)c1ccc(Oc2ccc(C(F)(F)F)cc2)cc1` [Example 64, N-{(1S)-2-[(2-Hydroxyethyl)amino]-2-oxo-1-[4-(trifluoromethoxy)benzyl]ethyl}-4-[4-(trifluoromethyl)phenoxy]benzamide], the “Bone density decrease-suppressing rate (%)” value was found to be 77%.

(Values after patent publication US8344029B2, “Substituted propanamide derivative and pharmaceutical composition containing the same” (Daiichi Sankyo Company, Limited, priority 2005, dated 2013).)
